Results as given in patent US10344046B2, “Nucleotide and oligonucleotide prodrugs” (priority 2005, dated 2019).
“Also recorded” adds a separate entry of the source. Like-named read-outs stand apart in the source and are kept apart here. One block for each compound: values may come before it.

Legend:
HBV = conditions: Iyer et al., Antimicrob. Agents and Chemotherapy, 48, 2318-2320, 2004; cited from earlier work
[1] = Stability in simulated intestine fluid (SIF); format: in vitro ADME; conditions: 1 h at 37° C.
Procedure: (§1) The stability of prodrugs in simulated gastric fluid (SGF) and simulated intestine fluid (SIF) at 37° C. were examined. SGF and SIF were prepared following reported procedures and prodrugs were incubated separately with SGF and SIF for 1 h at 37° C., processed, and analyzed using reverse-phase HPLC.

[2] = Metabolism in vitro with human liver microsomes; format: in vitro ADME
Text: (§2) This would support the hypothesis that the antiviral activity of 3-dApsU2′-OMe and other di-, and tri-nucleotides is due to the intact nucleotide structure and not due to its metabolites. This is in contrast to traditional antiviral nucleosides, which require metabolic activation and conversion to triphosphate derivatives for their action.
(§3) This is in contrast to traditional antiviral nucleosides, which require metabolic activation and conversion to triphosphate derivatives for their action.

[3] = format: in vitro ADME
Text: However, the challenge in the case of nucleotides and dinucleotides is that they contain highly acid-labile purine and pyrimidine moieties in their structures. Thus, although masking the negative charge of these molecules might aid in their cellular diffusion by increased lipohilicity, it is not known whether they will be stable in gastric mucosa long enough to be absorbed orally. […] Such degradative process is known to occur by initial protonation of nitrogen of the nucleobase followed by depurination and cleavage of the sugar ring.
as §1

[4] = Metabolism in vitro with mouse liver microsomes; format: in vitro ADME
Text: as §2

[5] = Pharmacokinetic study in woodchuck, intravenous; format: in vivo
Text: as §3

MDBK = experiment: Cytotoxicity assay, MDBK cell line
Procedure: (§4) We next examined the cytotoxicity profile of the pronucleotide derivatives in different cell lines such as MDBK, Vero, and HFF.
(§5) Standard MTF assays were performed in 96-well plates using the Promega CellTiter96 Non-radioactive Cell Proliferation Assay Kit in conjunction with a 96-well Plate Reader (ThermoMax, Molecular devices), and using MDBK, Vero, and TIFF cell lines (obtained from ATCC). Several controls were employed including the nucleoside analogs 3TC, AZT, and ddC, as well as, media without drugs. SDS was used as a positive cytotoxic control. All pronucleotides were tested in triplicate at concentrations of 100, 300, and 1000 μM. Following a 24-hour incubation of cells with the test substance, the MTF assay was carried out.

bovine chymotrypsin = bovine chymotrypsin (Bos taurus, UniProt P00766)
Vero = experiment: Cytotoxicity assay, Vero cell line
Procedure: as §4, §5

[6] = Bioreversibility (hydrolytic conversion to parent dinucleotide 5) in rabbit serum, HPLC; conditions: for t1/2 (min) in serum: rabbit; for time for almost complete conversion to 3′dApsU2′-OMe on serum treatment: rabbit serum, 37° C.
Procedure: (§6) Evaluation of bioreversibility of the pronucleotides was carried out in rabbit serum in phosphate buffer at 37° C. In order to monitor the hydrolytic conversion of the pronucleotides to the dinucleotide 5, aliquots of incubate were removed at different time points, processed, and analyzed using reversed-phase HPLC.
Bioreversibility studies were carried out as follows: A stock solution of each analog was prepared by dissolving 2 mg in 100 μL of DMSO. 10 μL aliquots were diluted with 90 μL of phosphate buffer (0.1 M, pH 7.0) and 100 μL aliquots of rabbit serum. The mixture was incubated at 37° C. in a water bath. Aliquots were removed at different time points and diluted with 200 μL of methanol to stop the reaction. The incubate was then centrifuged, supernatant concentrated in a speed vac and diluted with 200 μL of 0.1 M ammonium acetate buffer prior to injection into HPLC. Reversed-phase HPLC analysis was carried out using a Waters Instrument equipped with a 600Egradient controller, and a 996 photodiode array detector with Millennium software. X-terra MS C18 2.5 μm, 2.1×20 mm column and an operating gradient of 100% A to 80% B over 30 minutes of buffer A (0.1 M NH4OAc) and buffer B (80:20, CH3CN:NH4OAc) was employed. Retention time for prodrugs ranged from 16 to 18 minutes whereas that of the Rp,Sp dinucleotide 5 was 13.5, 13.8 minutes.

pig liver esterase (PLE) = test system: pig liver esterase (PLE)
Procedure: as §6

[7] = pH 7.2
Procedure: as §6

HFF = experiment: Cytotoxicity assay, HFF cell line
Procedure: as §4, §5

human hepatitis B virus = format: in vivo, transgenic mice
[8] = Weight change and apparent toxicity in the HBV transgenic mouse study
Procedure: Male and female transgenic mice (founder 1.3.32) were infected with human hepatitis B virus. […] The positive control, ADV, was administered at 10 mg/kg/d. Statistical significance is indicated as *P≤0.05, **P≤0.01, ***P≤0.001 compared to placebo vehicle. Measurements of serum HBeAg, PEI are reported according to International Immuno Diagnostics standardized assay using Paul Ehrlich International Units (PEI U).

[9] = oral once daily for 14 days, 6a 400, 6k 300, ADV 10 mg/kg/d

Structure (SMILES): COC1C(OP(=O)([S-])OCC2OC(n3cnc4c(N)ncnc43)CC2O)C(CO)OC1n1ccc(=O)[nH]c1=O.[Na+] (mixture of isomers) [3-dApsU2′-OMe]
anti-HBV activity in the transgenic mouse model (HBV): excellent anti-HBV activity
stability in SIF [1]: relatively stable
significant metabolism in vitro [2]: do not occur; also recorded: absence of significant metabolism
time of decomposing in SGF ([3]; SGF, 37° C.): about 15 min
half-life in simulated gastric fluid ([3]; simulated gastric fluid): less than 10 minutes
significant metabolism in vitro [4]: do not occur
elimination in the urine ([5]; IV): mostly intact material
plasma half-life ([5]; intravenous (IV) administration): about 1 h

hydrolytic action of bovine chymotrypsin (bovine chymotrypsin): resistant
time for complete conversion to the parent 5 [6]: ~3 h
hydrolytic action of pig liver esterase (PLE) (pig liver esterase (PLE)): resistant
time stable in phosphate buffer [7]: up to 24 h
Structure (SMILES): COC1C(OP(=O)(OCC2OC(n3cnc4c(N)ncnc43)CC2O)SCc2ccc(OC(=O)C(C)C)cc2)C(CO)OC1n1ccc(=O)[nH]c1=O (mixture of isomers) [Compound 6b]
CC50 (MDBK): > 1000 µM
CC50 (Vero): > 1000 µM
CC50 (HFF): > 1 mM

Structure (SMILES): COC1C(OP(=O)(OCC2OC(n3cnc4c(N)ncnc43)CC2O)SCc2ccc(NC(C)=O)cc2)C(CO)OC1n1ccc(=O)[nH]c1=O (mixture of isomers) [Compound 6d]
CC50 (MDBK): > 1000 µM
CC50 (Vero): > 1000 µM
CC50 (HFF): > 1 mM

Structure (SMILES): COC1C(OP(=O)(OCC2OC(n3cnc4c(N)ncnc43)CC2O)SCCCCOC(C)=O)C(CO)OC1n1ccc(=O)[nH]c1=O (mixture of isomers) [Compound 6e]
CC50 (MDBK; read-out: CC50(μM) MDBK, Table 4, 24-hour incubation): > 1000 µM
CC50 (Vero; read-out: CC50(μM) Vero, Table 4, 24-hour incubation): > 1000 µM
t1/2 (min) in serum [6]: >60^@ min

Structure (SMILES): COC1C(OP(=O)(OCC2OC(n3cnc4c(N)ncnc43)CC2O)SCCCCOC(=O)c2ccccc2)C(CO)OC1n1ccc(=O)[nH]c1=O (mixture of isomers) [Compound 6f]
CC50 (MDBK): > 1000 µM
CC50 (Vero): > 1000 µM
t1/2 (min) in serum [6]: >120^@ min

Structure (SMILES): COC1C(OP(=O)(OCC2OC(n3cnc4c(N)ncnc43)CC2O)SCCCCOC(=O)c2cccnc2)C(CO)OC1n1ccc(=O)[nH]c1=O (mixture of isomers) [Compound 6g]
CC50 (MDBK): > 1000 µM
CC50 (Vero): > 1000 µM
t1/2 (min) in serum [6]: >120^@ min
CC50 (HFF): > 1 mM

Structure (SMILES): COC1C(OP(=O)(OCC2OC(n3cnc4c(N)ncnc43)CC2O)SCCCCNC(=O)c2ccccc2)C(CO)OC1n1ccc(=O)[nH]c1=O (mixture of isomers) [Compound 6i]
CC50 (MDBK): > 1000 µM
CC50 (Vero): > 1000 µM

Structure (SMILES): COC1C(OP(=O)(OCC2OC(n3cnc4c(N)ncnc43)CC2O)SCCCCNC(=O)c2cccnc2)C(CO)OC1n1ccc(=O)[nH]c1=O (mixture of isomers) [Compound 6j]
CC50 (MDBK): > 1000 µM
CC50 (Vero): > 1000 µM
CC50 (HFF): > 1 mM

Structure (SMILES): COC1C(OP(=O)(OCC2OC(n3cnc4c(N)ncnc43)CC2O)SCOC(=O)OCC(C)C)C(CO)OC1n1ccc(=O)[nH]c1=O (mixture of isomers) [Compound 6s]
Cytotoxicity assay (um) MDBK (MDBK): >1000 um
Cytotoxicity assay (um) Vero (Vero): >1000 um
Cytotoxicity assay (um) HFF (HFF): >1000 um

Structure (SMILES): COC1C(OP(=O)(OCC2OC(n3cnc4c(N)ncnc43)CC2O)SCOC(=O)OC(C)(C)C)C(CO)OC1n1ccc(=O)[nH]c1=O (mixture of isomers) [Compound 6t]
Cytotoxicity assay (um) MDBK (MDBK): >1000 um
Cytotoxicity assay (um) Vero (Vero): >1000 um
Cytotoxicity assay (um) HFF (HFF): >1000 um

Structure (SMILES): CCCCOCCOC(=O)OCSP(=O)(OCC1OC(n2cnc3c(N)ncnc32)CC1O)OC1C(CO)OC(n2ccc(=O)[nH]c2=O)C1OC (mixture of isomers) [Compound 6u]
Cytotoxicity assay (um) MDBK (MDBK): >300 um
Cytotoxicity assay (um) Vero (Vero): >1000 um
Cytotoxicity assay (um) HFF (HFF): >1000 um

Structure (SMILES): CC(C)(C)C(=O)OCOP(=O)(COCCn1cnc2c(N)ncnc21)OCOC(=O)C(C)(C)C [ADV, adefovir dipivoxil, reference compound]
Liver HBV RNA (log transcripts ± sd) (human hepatitis B virus; mouse, in vivo): 10.5 ± 0.4 log transcripts
QPCR Liver HBV DNA (pg/μg mean ± sd) (human hepatitis B virus; mouse, in vivo): 1.7 ± 1.1 pg/µg
Serum HBeAg, PEI U/mL (mean ± sd) (human hepatitis B virus; mouse, in vivo): 59 ± 9.7 PEI U/mL
Serum HBsAg (signal/cutoff units ± sd) (human hepatitis B virus; mouse, in vivo): 73 ± 52 signal/cutoff units
Southern blot Liver HBV DNA (pg/μg mean ± sd) (human hepatitis B virus; mouse, in vivo): 0.9 ± 1.1 pg/µg

Structure (SMILES): CO[C@H]1C(OP(=O)(OC[C@H]2O[C@@H](n3cnc4c(N)ncnc43)CC2O)SCOC(=O)OC(C)C)[C@@H](CO)O[C@H]1n1ccc(=O)[nH]c1=O (some centres unmarked) [Compound 6k, S-isopropylcarbonyloxymethyl Thiophosphate Derivative 6k of 3′dApsU2′OMe]
Cytotoxicity assay (um) MDBK (MDBK; Table 5, 24-hour incubation): >1000 um
apparent toxicity at the high doses employed ([8]; 400 mg/kg/d (6a), 300 mg/kg/d (6k), oral, 14 days): no apparent toxicity
% weight change ± sd [8, 9]: 4.3 ± 1.8%
Cytotoxicity assay (um) Vero (Vero; Table 5, 24-hour incubation): >1000 um
time for almost complete conversion to 3′dApsU2′-OMe on serum treatment [6]: ~3 h
Liver HBV RNA (log transcripts ± sd) (human hepatitis B virus; [9]): 10.8 ± 0.4 log transcripts
QPCR Liver HBV DNA (pg/μg mean ± sd) (human hepatitis B virus; [9]): 13.3 ± 12 pg/µg
Serum HBeAg, PEI U/mL (mean ± sd) (human hepatitis B virus; [9]): 67 ± 0.6 PEI U/mL
Serum HBsAg (signal/cutoff units ± sd) (human hepatitis B virus; [9]): 55 ± 59 signal/cutoff units
Southern blot Liver HBV DNA (pg/μg mean ± sd) (human hepatitis B virus; [9]): 5.7 ± 3.2 pg/µg
Cytotoxicity assay (um) HFF (HFF; Table 5, 24-hour incubation): >1000 um

Structure (SMILES): CO[C@H]1C(OP(=O)(OC[C@H]2O[C@@H](n3cnc4c(N)ncnc43)CC2O)SCOC(=O)CCC(C)C2CCC3C4CCC5CC(O)CCC5(C)C4CC(O)C23C)[C@@H](CO)O[C@H]1n1ccc(=O)[nH]c1=O (some centres unmarked) [Compound 6l]
Cytotoxicity assay (um) MDBK (MDBK; Table 5, 24-hour incubation): >1000 um
Cytotoxicity assay (um) Vero (Vero; Table 5, 24-hour incubation): >1000 um
Cytotoxicity assay (um) HFF (HFF; Table 5, 24-hour incubation): >1000 um

Structure (SMILES): CO[C@H]1C(OP(=O)(OC[C@H]2O[C@@H](n3cnc4c(N)ncnc43)CC2O)SCOC(=O)C(Cc2ccccc2)NC(=O)OC(C)(C)C)[C@@H](CO)O[C@H]1n1ccc(=O)[nH]c1=O (stereo partly drawn) [Compound 6m, N-(t-butoxycarbonyl)-L-phenylalaninate Analog 6m of 3′dApsU2′OMe]
Cytotoxicity assay (um) MDBK (MDBK; Table 5, 24-hour incubation): >1000 um
Cytotoxicity assay (um) Vero (Vero; Table 5, 24-hour incubation): >1000 um
time for almost complete conversion to 3′dApsU2′-OMe on serum treatment [6]: ~3 h
Cytotoxicity assay (um) HFF (HFF; Table 5, 24-hour incubation): >1000 um
